Reference: US7135488B2, “Pyrrolyl-thiazole derivatives” (Hoffmann-La Roche Inc., priority 2003, dated 2006)

Test system: not given
Experiment: not given
Details: doses of 5, 10 and 20 mg daily; double blind placebo-controlled study; cited from earlier work

Row | Compound | body weight compared to placebo
1 | Cc1c(C(=O)NN2CCCCC2)nn(-c2ccc(Cl)cc2Cl)c1-c1ccc(Cl)cc1 [SR 141716, Rimonabant] | significantly reduced body weight

Target: T1, human cannabis CB1 receptor (Homo sapiens, UniProt P21554)
T1 construct: expressed in transfected cells; host or cells: human embryonic kidney (HEK) cells, Semliki Forest Virus system, membrane preparation
T1 sequence (P21554 whole entry): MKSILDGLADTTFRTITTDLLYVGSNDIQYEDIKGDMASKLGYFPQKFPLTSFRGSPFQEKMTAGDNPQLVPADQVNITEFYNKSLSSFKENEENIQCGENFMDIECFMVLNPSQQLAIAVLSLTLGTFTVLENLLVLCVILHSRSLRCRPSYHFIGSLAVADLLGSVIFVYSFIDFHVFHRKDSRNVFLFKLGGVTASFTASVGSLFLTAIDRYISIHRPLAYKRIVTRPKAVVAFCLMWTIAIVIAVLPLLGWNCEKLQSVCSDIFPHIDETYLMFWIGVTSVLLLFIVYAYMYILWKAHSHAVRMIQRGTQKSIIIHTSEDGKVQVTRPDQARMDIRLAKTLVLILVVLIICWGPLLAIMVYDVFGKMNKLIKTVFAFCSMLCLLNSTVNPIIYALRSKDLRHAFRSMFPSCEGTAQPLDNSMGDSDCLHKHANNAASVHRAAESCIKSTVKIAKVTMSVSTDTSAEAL
Experiment: CB1 receptor affinity, [3H]-CP-55,940 radioligand binding on HEK cell membranes
Details: not given
Protocol: The affinity of the compounds of the invention for cannabinoid CB1 receptors was determined using membrane preparations of human embryonic kidney (HEK) cells in which the human cannabis CB1 receptor is transiently transfected using the Semliki Forest Virus system in conjunction with [3H]-CP-55,940 as radioligand. After incubation of a freshly prepared cell membrane preparation with the [3H]-ligand, with or without addition of compounds of the invention, separation of bound and free ligand was performed by filtration over glassfiber filters. Radioactivity on the filter was measured by liquid scintillation counting.

Row | Compound | IC50 [nM]
2 | COc1ccc(-c2nc(-c3cc(C(=O)NCc4ccccn4)c(C)n3CC3CCCCC3)cs2)cc1 [Example 305, Cyclohexylmethyl-5-[2-(4-methoxy-phenyl)-thiazol-4-yl]-2-methyl-1H-pyrrole-3-carboxylic acid (pyridin-2-ylmethyl)-amide] | < 2000
3 | CCCCNC(=O)c1cc(-c2csc(-c3ccc(OC)cc3)n2)n(CC2CCCCC2)c1C [Example 8, Cyclohexylmethyl-5-[2-(4-methoxy-phenyl)-thiazol-4-yl]-2-methyl-1H-pyrrole-3-carboxylic acid butylamide] | < 2000
4 | COc1ccc(-c2nc(-c3cc(C(=O)NN4CCCCC4)c(C)n3CC3CCCCC3)cs2)cc1 [Example 299, Cyclohexylmethyl-5-[2-(4-methoxy-phenyl)-thiazol-4-yl]-2-methyl-1H-pyrrole-3-carboxylic acid piperidin-1-ylamide] | < 2000
5 | CCCCNC(=O)c1cc(-c2csc(-c3ccc(OC)cc3)n2)n(Cc2ccccc2)c1C [Example 333, Benzyl-5-[2-(4-methoxy-phenyl)-thiazol-4-yl]-2-methyl-1H-pyrrole-3-carboxylic acid butylamide] | < 2000
6 | COc1ccc(-c2nc(-c3cc(C(=O)Nc4ncccn4)c(C)n3CC3CCCCC3)cs2)cc1 [Example 324, Cyclohexylmethyl-5-[2-(4-methoxy-phenyl)-thiazol-4-yl]-2-methyl-1H-pyrrole-3-carboxylic acid pyrimidin-2-ylamide] | < 2000
7 | COc1ccc(-c2nc(-c3cc(C(=O)NC4CCCCC4)c(C)n3CC3CCCCC3)cs2)cc1 [Example 356, Cyclohexylmethyl-5-[2-(4-methoxy-phenyl)-thiazol-4-yl]-2-methyl-1H-pyrrole-3-carboxylic acid cyclohexylamide] | < 2000
8 | COc1ccc(-c2nc(-c3cc(C(=O)Nc4ccccc4)c(C)n3CC3CCCCC3)cs2)cc1 [Example 315, Cyclohexylmethyl-5-[2-(4-methoxy-phenyl)-thiazol-4-yl]-2-methyl-1H-pyrrole-3-carboxylic acid phenylamide] | < 2000
9 | CCCCNC(=O)c1cc(-c2csc(-c3ccc4c(c3)OCO4)n2)n(CC2CCCCC2)c1C [Example 340, 5-(2-Benzo[1,3]dioxol-5-yl-thiazol-4-yl)-1-cyclohexylmethyl-2-methyl-1H-pyrrole-3-carboxylic acid butylamide] | < 2000
10 | CCCCNC(=O)c1cc(-c2csc(C3CCCCC3)n2)n(CC2CCCCC2)c1C [Example 375, Cyclohexylmethyl-5-(2-cyclohexyl-thiazol-4-yl)-2-methyl-1H-pyrrole-3-carboxylic acid butylamide] | < 2000
11 | COc1ccc(-c2nc(-c3cc(C(=O)N4CCCCC4)c(C)n3CC3CCCCC3)cs2)cc1 [Example 311, {1-Cyclohexylmethyl-5-[2-(4-methoxy-phenyl)-thiazol-4-yl]-2-methyl-1H-pyrrol-3-yl}-piperidin-1-yl-methanone] | < 2000

Same assay, conditions: membranes of HEK cells transiently transfected with human CB1 receptor; radioligand [3H]-CP-55,940; read-out: IC50 (affinity for the CB1 receptor)

Row | IC50 [nM] | Compound
12 | < 2000 | CCCCNC(=O)c1cc(-c2csc(-c3ccc(OC)cc3)n2)n(Cc2ccccn2)c1C [Example 371, 5-[2-(4-Methoxy-phenyl)-thiazol-4-yl]-2-methyl-1-pyridin-2-ylmethyl-1H-pyrrole-3-carboxylic acid butylamide]

Test system: not given
Experiment: not given
Details: not given

Row | melting point [°C] | Compound
13 | 184 to 187 | CCCCNC(=O)c1cc(-c2csc(-c3ccc([N+](=O)[O-])cc3)n2)n(CC2CCCCC2)c1C [Example 1, Cyclohexylmethyl-2-methyl-5-[2-(4-nitro-phenyl)-thiazol-4-yl]-1H-pyrrole-3-carboxylic acid butylamide]
